Laboratory results published in PubChem BioAssay AID1259407 (Chemical Carcinogenesis Research Information System (CCRIS), 2018).
Activity calls are given as the source filed them. How the calls were made is not given here.

Test system: CCRIS mutagenicity, Ames/micronucleus/aberration tests
Test: CCRIS mutagenicity studies
From the text: The CCRIS database contains chemical records with carcinogenicity, mutagenicity, tumor promotion, and tumor inhibition test results. It was developed by the National Cancer Institute (NCI). Data are derived from studies cited in primary journals, current awareness tools, NCI reports, and other sources. Test results have been reviewed by experts in carcinogenesis and mutagenesis.
CCRIS provides historical information from the years 1985 - 2011. It is no longer updated.
This is an archive assay for CCRIS mutagenicity studies.

[1] = Test System: AMES SALMONELLA TYPHIMURIUM, Strain/Indicator: TA98, Metabolic Activation: NONE, Method: STANDARD PLATE
[2] = Test System: AMES SALMONELLA TYPHIMURIUM, Strain/Indicator: TA100, Metabolic Activation: NONE, Method: STANDARD PLATE
[3] = Test System: AMES SALMONELLA TYPHIMURIUM, Strain/Indicator: TA98, Metabolic Activation: NONE, Method: PREINCUBATION
[4] = Test System: AMES SALMONELLA TYPHIMURIUM, Strain/Indicator: TA100, Metabolic Activation: NONE, Method: PREINCUBATION

O=[N+]([O-])c1cc2cccc([N+](=O)[O-])c2c2ccccc12
mutagenic call (Test System: AMES SALMONELLA TYPHIMURIUM, Strain/Indicator: TA98(1,8-DNP6), Metabolic Activation: NONE, Method: STANDARD PLATE): active; positive
mutagenic call (Test System: AMES SALMONELLA TYPHIMURIUM, Strain/Indicator: TA98(NR), Metabolic Activation: NONE, Method: STANDARD PLATE): active; positive
mutagenic call [1]: active; positive
mutagenic call [2]: active; positive
mutagenic call (Test System: AMES SALMONELLA TYPHIMURIUM, Strain/Indicator: YG1021, Metabolic Activation: NONE, Method: STANDARD PLATE): active; positive
mutagenic call (Test System: AMES SALMONELLA TYPHIMURIUM, Strain/Indicator: YG1024, Metabolic Activation: NONE, Method: STANDARD PLATE): active; positive
mutagenic call (Test System: AMES SALMONELLA TYPHIMURIUM, Strain/Indicator: YG1026, Metabolic Activation: NONE, Method: STANDARD PLATE): active; positive
mutagenic call (Test System: AMES SALMONELLA TYPHIMURIUM, Strain/Indicator: YG1029, Metabolic Activation: NONE, Method: STANDARD PLATE): active; positive

CC1CC(C(C)C(C)(C)O)O[C@H]2C[C@@]3(C)[C@@H]4CC[C@H]5C(C)(C)C(=O)CC[C@@]56C[C@@]46CC[C@]3(C)[C@@H]12 (stereo not given in full)
mutagenic call (End Point: IN VITRO MICRONUCLEUS, Test System: HUMAN PERIPHERAL LYMPHOCYTES, Metabolic Activation: NONE): inactive; negative

CNC[C@H](O)[C@@H](O)[C@H](O)[C@H](O)CO.CNC[C@H](O)[C@@H](O)[C@H](O)[C@H](O)CO.O=C([O-])CN(CCN(CC(=O)[O-])CC(=O)[O-])CCN(CC(=O)[O-])[C@H](COCc1ccccc1)C(=O)[O-].[Gd+3].[H+].[H+]
mutagenic call [1]: inactive; negative
mutagenic call (Test System: AMES SALMONELLA TYPHIMURIUM, Strain/Indicator: TA98, Metabolic Activation: RAT LIVER S-9, AROCLOR 1254 (10%), Method: STANDARD PLATE): inactive; negative
mutagenic call [2]: inactive; negative
mutagenic call (Test System: AMES SALMONELLA TYPHIMURIUM, Strain/Indicator: TA100, Metabolic Activation: RAT LIVER S-9, AROCLOR 1254 (10%), Method: STANDARD PLATE): inactive; negative
mutagenic call (Test System: AMES SALMONELLA TYPHIMURIUM, Strain/Indicator: TA1535, Metabolic Activation: NONE, Method: STANDARD PLATE): inactive; negative
mutagenic call (Test System: AMES SALMONELLA TYPHIMURIUM, Strain/Indicator: TA1535, Metabolic Activation: RAT LIVER S-9, AROCLOR 1254 (10%), Method: STANDARD PLATE): inactive; negative
mutagenic call (Test System: AMES SALMONELLA TYPHIMURIUM, Strain/Indicator: TA1537, Metabolic Activation: NONE, Method: STANDARD PLATE): inactive; negative
mutagenic call (Test System: AMES SALMONELLA TYPHIMURIUM, Strain/Indicator: TA1537, Metabolic Activation: RAT LIVER S-9, AROCLOR 1254 (10%), Method: STANDARD PLATE): inactive; negative
mutagenic call (Test System: AMES SALMONELLA TYPHIMURIUM, Strain/Indicator: TA1538, Metabolic Activation: NONE, Method: STANDARD PLATE): inactive; negative
mutagenic call (Test System: AMES SALMONELLA TYPHIMURIUM, Strain/Indicator: TA1538, Metabolic Activation: RAT LIVER S-9, AROCLOR 1254 (10%), Method: STANDARD PLATE): inactive; negative
mutagenic call (Test System: ESCHERICHIA COLI, Strain/Indicator: WP2 UVR A-, Metabolic Activation: NONE, Method: STANDARD PLATE): inactive; negative
mutagenic call (Test System: ESCHERICHIA COLI, Strain/Indicator: WP2 UVR A-, Metabolic Activation: RAT LIVER S-9, AROCLOR 1254 (10%), Method: STANDARD PLATE): inactive; negative

Oc1ccc(Cc2ccc(O)cc2)cc1
mutagenic call (End Point: In vitro micronucleus, Test System: HepG2 cells, Metabolic Activation: None): inactive; negative
mutagenic call (Test System: Ames Salmonella typhimurium, Strain/Indicator: TA98, Metabolic Activation: None, Method: Preincubation): inactive; negative
mutagenic call (Test System: Ames Salmonella typhimurium, Strain/Indicator: TA98, Metabolic Activation: Rat, Liver, S-9, Aroclor 1254, Method: Preincubation): inactive; negative
mutagenic call (Test System: Ames Salmonella typhimurium, Strain/Indicator: TA100, Metabolic Activation: None, Method: Preincubation): inactive; negative
mutagenic call (Test System: Ames Salmonella typhimurium, Strain/Indicator: TA100, Metabolic Activation: Rat, Liver, S-9, Aroclor 1254, Method: Preincubation): inactive; negative
mutagenic call (Test System: Ames Salmonella typhimurium, Strain/Indicator: TA1535, Metabolic Activation: None, Method: Preincubation): inactive; negative
mutagenic call (Test System: Ames Salmonella typhimurium, Strain/Indicator: TA1535, Metabolic Activation: Rat, Liver, S-9, Aroclor 1254, Method: Preincubation): inactive; negative
mutagenic call (Test System: Ames Salmonella typhimurium, Strain/Indicator: TA1537, Metabolic Activation: None, Method: Preincubation): inactive; negative
mutagenic call (Test System: Ames Salmonella typhimurium, Strain/Indicator: TA1537, Metabolic Activation: Rat, Liver, S-9, Aroclor 1254, Method: Preincubation): inactive; negative
mutagenic call (Test System: E. coli, Strain/Indicator: W2 uvrA pKM101, Metabolic Activation: None, Method: Preincubation): inactive; negative
mutagenic call (Test System: E. coli, Strain/Indicator: W2 uvrA pKM101, Metabolic Activation: Rat, Liver, S-9, Aroclor 1254, Method: Preincubation): inactive; negative

Cc1ccc(N)c([N+](=O)[O-])c1
mutagenic call [3]: inactive; negative
mutagenic call (Test System: AMES SALMONELLA TYPHIMURIUM, Strain/Indicator: TA98, Metabolic Activation: RAT, LIVER, S-9, KANECHLOR 500, Method: PREINCUBATION): inactive; negative
mutagenic call [4]: inactive; negative
mutagenic call (Test System: AMES SALMONELLA TYPHIMURIUM, Strain/Indicator: TA100, Metabolic Activation: RAT, LIVER, S-9, KANECHLOR 500, Method: PREINCUBATION): inactive; negative
mutagenic call (Test System: UDS RODENT HEPATOCYTES, Strain/Indicator: THY INCORP (NON-S-PHASE), Metabolic Activation: NONE, Method: AUTORADIOGRAPHY): inactive; negative

Nc1ccc(Oc2ccc([N+](=O)[O-])cc2)cc1
mutagenic call (Test System: AMES SALMONELLA TYPHIMURIUM, Strain/Indicator: TA98(NR), Metabolic Activation: NONE, Method: PREINCUBATION): inactive; negative
mutagenic call (Test System: AMES SALMONELLA TYPHIMURIUM, Strain/Indicator: TA98(NR), Metabolic Activation: RAT, LIVER, S-9, AROCLOR 1254, Method: PREINCUBATION): active; positive
mutagenic call [3]: active; positive
mutagenic call (Test System: AMES SALMONELLA TYPHIMURIUM, Strain/Indicator: TA98, Metabolic Activation: RAT, LIVER, S-9, AROCLOR 1254, Method: PREINCUBATION): active; positive
mutagenic call (Test System: AMES SALMONELLA TYPHIMURIUM, Strain/Indicator: TA100(NR), Metabolic Activation: NONE, Method: PREINCUBATION): active; positive
mutagenic call (Test System: AMES SALMONELLA TYPHIMURIUM, Strain/Indicator: TA100(NR), Metabolic Activation: RAT, LIVER, S-9, AROCLOR 1254, Method: PREINCUBATION): active; positive
mutagenic call [4]: active; positive
mutagenic call (Test System: AMES SALMONELLA TYPHIMURIUM, Strain/Indicator: TA100, Metabolic Activation: RAT, LIVER, S-9, AROCLOR 1254, Method: PREINCUBATION): active; positive
